This is an account of results in US9765358B2 (priority 2015, dated 2017).

In one assay the test system is Clostridium beijerinckii. The assay is classed as cell-based.
In another assay the test system is Lactobacillus plantarum. The assay is classed as cell-based.

As to `CC[C@H]1OC(=O)[C@H](C)[C@@H](O[C@H]2C[C@@](C)(OC)[C@@H](O)[C@H](C)O2)[C@H](C)[C@@H](O[C@@H]2O[C@H](C)C[C@H](N(C)C)[C@H]2O)[C@](C)(O)C[C@@H](C)CN(C)[C@H](C)[C@@H](O)[C@]1(C)O` [azithromycin], the “antibiotic susceptibility (disc, zone of clearance)” value (shortened to “antibiotic susceptibility”) in the assay with Clostridium beijerinckii and in the assay with Lactobacillus plantarum was “susceptible” each time.
`CC1(C)S[C@@H]2[C@H](NC(=O)C(C(=O)O)c3ccccc3)C(=O)N2[C@H]1C(=O)O` (stereo partly drawn) [carbenicillin]: the “antibiotic susceptibility” value is “susceptible” in the assay on Clostridium beijerinckii and “resistant” in the assay on Lactobacillus plantarum.
The matching figures for `Cc1ncc([N+](=O)[O-])n1CCO` [metronidazole]: “susceptible” and “resistance”.
In the case of `CN[C@H](CC(C)C)C(=O)N[C@H]1C(=O)N[C@@H](CC(N)=O)C(=O)N[C@H]2C(=O)N[C@H]3C(=O)N[C@H](C(=O)N[C@H](C(=O)O)c4cc(O)cc(O)c4-c4cc3ccc4O)[C@H](O)c3ccc(c(Cl)c3)Oc3cc2cc(c3O[C@@H]2O[C@H](CO)[C@@H](O)[C@H](O)[C@H]2O[C@H]2C[C@](C)(N)[C@H](O)[C@H](C)O2)Oc2ccc(cc2Cl)[C@H]1O` [vancomycin], the “antibiotic susceptibility” value in the assay on Clostridium beijerinckii is “susceptible”.
amoxicillin/clavulinic acid: the figures for the “antibiotic susceptibility” value with Clostridium beijerinckii and in the assay on Lactobacillus plantarum were “susceptible” and “resistant”, respectively.
